The results in this text go back to ChEMBL document CHEMBL4364281, “Design of wogonin-inspired selective cyclin-dependent kinase 9 (CDK9) inhibitors with potent in vitro and in vivo antitumor activity” (Eur J Med Chem, 2019).

The nature of data set [1]: Toxicity in BALB/c mouse assessed as mortality at 15 to 45 mg/kg, iv administered every other day for 21 days. The data set is classed as organism-based. The note with it: in vivo, 504 h.
The test system of another data set is MCF7. Description: Antiproliferative activity against human MCF7 cells assessed as reduction in cell viability after 72 hrs by MTT assay. The note with it: MCF7, 72 h. It is filed as functional, cell-based. Background: Formazan colour is commonly taken as a measure of viable cells.
The test system of data set [2] is MV4-11. Kind of data set: cells. The note with it: Homo sapiens, MV4-11, 72 h.
Description: Antiproliferative activity against human MV4-11 cells assessed as reduction in cell viability after 72 hrs by MTT assay
For another data set, the system named is HEK293. Description: Cytotoxicity against human HEK293 cells assessed as reduction in cell viability after 72 hrs by MTT assay. The data set is classed as cell-based. The note with it: HEK293, 72 h.
The test system of data set [3] is MV4-11. Kind of data set: Induction of apoptosis in human MV4-11 cells assessed as necrotic cells at 1.25 uM after 24 hrs by Annexin-V/propidium iodide staining based flow cytometric method (reference value: 2.64%). It is filed as functional.
The subject of another data set is CCRF-CEM. Kind of data set: Antiproliferative activity against human CEM cells assessed as reduction in cell viability after 72 hrs by MTT assay. It is filed as functional, cell-based.
For data set [4], the system named is MV4-11. Description: Induction of apoptosis in human MV4-11 cells assessed as viable cells at 0.05 uM after 24 hrs by Annexin-V/propidium iodide staining based flow cytometric method (reference value: 96.94%). It is filed as functional. The note with it: MV4-11, 24 h, read-out: Activity. Background: A flow cytometer gives signals particle by particle.
The next data set addresses CDK9/cyclin T1 (Homo sapiens, UniProt P50750).
Data set [5] has as its system MV4-11. Kind of data set: Induction of apoptosis in human MV4-11 cells assessed as viable cells at 1.25 uM after 24 hrs by Annexin-V/propidium iodide staining based flow cytometric method (reference value: 96.94%). It is filed as functional. The note with it: MV4-11, 24 h, read-out: Activity.
Another data set relates to BT-549. Description: Antiproliferative activity against human BT549 cells assessed as reduction in cell viability after 72 hrs by MTT assay. The data set is classed as functional, cell-based. The note with it: BT-549, 72 h.
Data set [6] relates to MV4-11. Description: Induction of apoptosis in human MV4-11 cells assessed as early apoptotic cells at 0.25 uM after 24 hrs by Annexin-V/propidium iodide staining based flow cytometric method (reference value: 0.36%). It is filed as functional.
In data set [7] the target is Cyclin-dependent kinase 9 (Homo sapiens) (UniProt P50750). Kind of data set: Inhibition of CDK9 in human MV4-11 cells assessed as inhibition of RNA polymerase 2 phosphorylation at S2 residue after 4 hrs by Western blot analysis. It is filed as cell-based. For orientation: Immunoblotting shows a protein as a band on a membrane.
Sequence of Cyclin-dependent kinase 9 (Homo sapiens) (P50750 whole entry): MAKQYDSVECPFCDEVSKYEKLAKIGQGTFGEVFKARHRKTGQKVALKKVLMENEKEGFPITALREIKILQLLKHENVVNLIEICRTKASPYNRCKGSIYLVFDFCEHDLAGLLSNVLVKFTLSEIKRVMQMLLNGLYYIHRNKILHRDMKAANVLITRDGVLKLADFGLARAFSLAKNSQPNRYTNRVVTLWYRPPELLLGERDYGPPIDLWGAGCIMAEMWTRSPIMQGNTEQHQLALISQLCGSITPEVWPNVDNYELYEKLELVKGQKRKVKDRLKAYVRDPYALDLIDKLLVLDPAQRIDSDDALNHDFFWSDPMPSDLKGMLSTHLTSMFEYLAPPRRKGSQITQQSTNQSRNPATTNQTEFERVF
For the next data set, the system named is HepG2. Description: cells. The note with it: Homo sapiens, HepG2, 72 h.
The subject of a further data set is L02. Kind of data set: Cytotoxicity against human LO2 cells assessed as reduction in cell viability after 72 hrs by MTT assay. The data set is classed as cell-based. The note with it: L02, 72 h.

Structures are written as SMILES. Values after ≈ are worked out from the molar mass of the structure shown.

Sequence of CDK9/cyclin T1 (O60563 whole entry): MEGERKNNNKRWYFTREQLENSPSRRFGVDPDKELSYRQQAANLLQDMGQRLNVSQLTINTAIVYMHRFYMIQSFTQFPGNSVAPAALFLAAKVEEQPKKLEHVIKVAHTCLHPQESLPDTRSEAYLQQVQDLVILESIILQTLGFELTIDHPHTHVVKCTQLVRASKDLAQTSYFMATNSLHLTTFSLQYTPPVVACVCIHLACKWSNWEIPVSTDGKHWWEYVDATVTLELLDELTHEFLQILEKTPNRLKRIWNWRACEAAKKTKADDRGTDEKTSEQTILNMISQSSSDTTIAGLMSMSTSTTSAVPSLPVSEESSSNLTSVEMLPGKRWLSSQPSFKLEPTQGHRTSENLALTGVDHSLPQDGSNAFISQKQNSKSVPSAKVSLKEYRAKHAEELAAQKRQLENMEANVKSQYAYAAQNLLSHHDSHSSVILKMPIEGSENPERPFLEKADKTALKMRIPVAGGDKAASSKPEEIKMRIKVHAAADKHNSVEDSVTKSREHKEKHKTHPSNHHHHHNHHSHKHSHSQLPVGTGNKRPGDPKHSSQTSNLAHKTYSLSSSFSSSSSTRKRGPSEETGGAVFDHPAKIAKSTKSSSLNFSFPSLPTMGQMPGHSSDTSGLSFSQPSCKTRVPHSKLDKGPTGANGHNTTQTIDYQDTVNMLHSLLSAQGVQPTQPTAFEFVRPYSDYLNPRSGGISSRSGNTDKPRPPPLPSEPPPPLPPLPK
Sequence of CDK9/cyclin T1 (P50750 whole entry): as the sequence (P50750 whole entry) above
Description for HepG2: Antiproliferative activity against human HepG2 cells assessed as reduction in cell viability after 72 hrs by MTT assay
Description for physchem: Intrinsic solubility of compound by potentiometric titration assay

In general, IC50 refers to the concentration at which inhibition is half-maximal. As a reminder, the solubility is the concentration that dissolves in the medium under given conditions. Take `COc1cc(O)c2c(=O)cc(-c3ccc(N4CCN(C)CC4)cc3)oc2c1Oc1c(C)n[nH]c1C`: the Activity entry in [1] is “Non-Toxic”; with MV4-11 [3], 6.46%; in the data set on MV4-11 [6], 21.25%. The IC50 was 0.48 µM in the data set on MCF7; 0.02 µM with MV4-11 [2]; 22.1 µM in the data set on HEK293; 1.24 µM with CCRF-CEM; 0.0199 µM at CDK9/cyclin T1; 1.85 µM with BT-549. For the same molecule, the IC50 came to 2.67 µM in the data set with HepG2 and 15.1 µM with L02. Moreover, the viability at 0.05 µM in the data set on MV4-11 [4] turned out to be 74.8%. Moreover, the viability at 1.25 µM in the data set with MV4-11 [5] came out at 58.1%. In “physchem”, this molecule had a solubility of 28 µg/mL (≈ 58.8 µM). Also, the inhibition entry in data set [7] is “Dose-dependent effect”.
